Data as given in patent US5242945A, “Tetronic and thiotetronic acid derivatives as phospholipase A2 inhibitors” (American Home Products Corporation, priority 1991, dated 1993).
Where two headings read alike, the source gives them in different places.

Columns and labels:
5-lipoxygenase (LTC4) = assay: resident murine peritoneal macrophage assay, LTC4; format: cell-based, mouse (Swiss Webster); conditions: for IC50: read-out: LTC4 zymosan IC50; for LTC4 AA % Inhibition: arachidonic acid stimulation
Procedure: (§1) The ability of the compounds of the invention to act as inhibitors of the enzymes 5-lipoxygenase and cyclooxygenase is measured in the resident murine peritoneal macrophage assay.
Resident peritoneal macrophages are collected from female Swiss Webster mice (49 days old, 20-25 gms, Buckshire) by lavaging with 7-8 ml Hanks Balanced Salt Solution (HBSS) without Ca^++ and Mg^++ (GIBCO). The lavage fluid from several mice is pooled and centrifuged at 4° C. for 10 minutes at 400 xg.
(§2) Residual serum and cellular debris are removed from the monolayers by washing 3× with 2 ml HBSS containing Ca^++ and Mg^++. Macrophages are preincubated for 5 minutes with 1 ml serum-free M199 containing 10 μl dimethyl sulfoxide (DMSO) vehicle or test compound prior to cell activation with zymosan ([…]) or arachidonic acid (AA) (2 μM). After 2 hours, the supernatants are removed and either assayed for LTC4 and PGE2 by radioimmunoassay (RIA) directly or stored at -20° C. In all cases, results are expressed as ng metabolite/4×10^6 cells.
(§3) Raw data (dpm) may be stored directly onto an "Autostart" tape using the HP85 in room C-096. The raw data are converted to ng metabolite/4-10^6cells using the standard curve by a "RIANAL" program (HP85) or a "NONLIN" program (HP9816). Results are then expressed as percent inhibition of zymosan induced, leukotriene or prostaglandin synthesis (control) using the equation: [formula]

cyclooxygenase (PGE2) = assay: resident murine peritoneal macrophage assay, PGE2; format: cell-based, mouse (Swiss Webster); conditions: Mus musculus, Peritoneal macrophage; for IC50: read-out: PGE2 zymosan IC50
Procedure: as §1
Resident peritoneal macrophages are collected from female Swiss Webster mice (49 days old, 20-25 gms, Buckshire) by lavaging with 7-8 ml Hanks Balanced Salt Solution (HBSS) without Ca^++ and Mg^++ (GIBCO). The lavage fluid from several mice is pooled and centrifuged at 4° C. for 10 minutes at 400 xg. The cell pellet is resuspended in Medium 199 (GIBCO) with HEPES buffer containing 100 μg/ml gentamicin. Two ml of the cell suspension (4×10^6 cells) are then plated on 35 mm culture dishes (Nunc).
A macrophage monolayer is established after a 1-1.5 hour incubation of the cells at 37° C. in an atmosphere of […] and 5% CO2. The monolayers are washed 2× with 2 ml HBDSS, containing Ca^++ and Mg^++ after which 2 ml Medium 199 supplemented with 10% freshly thawed heat-inactivated fetal bovine serum and 100 μg/ml gentamicin is added for an overnight incubation.
as §2, §3

TPA-induced ear edema = assay: 12-o-tetradecanoylphorbol acetate (TPA)-induced murine ear edema assay; format: in vivo, mouse (Swiss Webster); conditions: TPA; for ED50: Mus musculus, sc, 4 h, read-out: Subcutaneous ED50; for Subcutaneous % Inhibition at 50 m/kg / ED50: subcutaneous
Procedure: The ability of the compounds of the invention to inhibit inflammatory responses is examined in the in vivo arachidonic acid (AA)/12-o-tetradecanoylphorbol acetate (TPA)-induced murine ear edema assay.
Swiss Webster female mice (Buckshire), approximately 8 weeks old are placed into plastic boxes in groups of six. Eight groups of mice receive AA topically on the right ear, and another 8 groups receive TPA topically on the right ear. AA and TPA are dissolved in acetone at concentrations of 100 mg/ml and 100 μg/ml respectively. The phlogistics are applied to the right ear by the means of an automatic pipet. Volumes of 10 μl are applied to the inner and outer surfaces of the ear. Each mouse receives either 2 mg/ear AA or 2 μg/ear TPA. The left ear (control) receives acetone delivered in the same manner. Topical and subcutaneous dosing regimens are as follows 1) drugs are given 30 minutes prior to AA treatment and 2) drugs are given 30 minutes after treatment with TPA.
Measurements are taken with Oditest calipers, 0-10 mm with 0.01 graduations. The right and left ears are measured after 1 hr AA-induced inflammation and 4 hours after TPA-induced inflammation.
The difference between right and left ear thickness is calculated and the significance is determined by a one way analysis of variance with Dunnett's comparisons to control (P=0.05). Drug effects are expressed as a percent change from control values: [formula]

[1] = biological target: T1, human synovial fluid PLA2 (Homo sapiens, UniProt P14555); assay: in vitro isolated phospholipase A2 assay, human synovial fluid PLA2; format: biochemical; conditions: for IC50: Table IV, read-out: IC50 HSF (human synovial fluid); for inhibition at 10 µM: + values given without explanation, read-out: % Inhibition HSF (human synovial fluid)
T1 construct: Purified human synovial fluid; from tissue; host or cells: human synovial fluid
T1 sequence (P14555 21-144): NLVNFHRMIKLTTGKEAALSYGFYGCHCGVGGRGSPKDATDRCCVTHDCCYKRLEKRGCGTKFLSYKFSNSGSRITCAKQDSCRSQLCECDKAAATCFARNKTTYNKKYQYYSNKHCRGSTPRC
How it was run: (§4)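 PLA2 from semipurified human platelet acid extract or purified human synovial fluid, preincubated 30 min at room temperature with compound. ³H-arachidonate-labelled E. coli substrate then added in Tris-HCl pH 7.5, with enzyme giving about 12% hydrolysis. Reaction ran 10 min at 37° C; released arachidonic acid recovered on NH2 columns and measured by β-counting.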

human platelet PLA2 = biological target: T2, human platelet PLA2 (Homo sapiens, UniProt P14555); assay: in vitro isolated phospholipase A2 assay, human platelet PLA2; format: biochemical; conditions: for IC50: Table IV, read-out: IC50 HP (human platelet); for inhibition at 10 µM: + values given without explanation, read-out: % Inhibition HP (human platelet)
T2 construct: platelet acid extract PLA2; from tissue; host or cells: human platelets, semipurified acid extract
T2 sequence (P14555 21-144): T1 sequence (P14555 21-144)
How it was run: as §4

[2] = Mus musculus, Peritoneal macrophage, zymosan stimulation
[3] = arachidonic acid stimulation, read-out: PGE2 AA % Inhibition
[4] = zymosan stimulation, read-out: PGE2 zymosan % Inhibition

Row | Structure (SMILES) | IC50 (5-lipoxygenase (LTC4); [2]) [µM] | IC50 (cyclooxygenase (PGE2); zymosan stimulation) [µM] | inhibition at 10 µM [1] [%] | IC50 (human platelet PLA2) [µM] | inhibition at 10 µM (human platelet PLA2) [%] | Subcutaneous % Inhibition at 50 m/kg (TPA-induced ear edema; on line of vehicle acetone) [%] | Topical % Inhibition at 200 μg (TPA-induced ear edema; vehicle acetone) [%] | IC50 [1] [µM] | LTC4 AA % Inhibition (5-lipoxygenase (LTC4); dose 0.3 (unit not given)) [%] | inhibition at 0.3 µM (cyclooxygenase (PGE2); [3]) [%] | Topical % Inhibition at 200 μg (TPA-induced ear edema; vehicle EPW) [%] | LTC4 AA % Inhibition (5-lipoxygenase (LTC4); dose 0.5 (unit not given)) [%] | inhibition at 0.1 µM (cyclooxygenase (PGE2); zymosan stimulation) [%] | inhibition at 0.1 µM (5-lipoxygenase (LTC4); [2]) [%] | Subcutaneous % Inhibition at 50 m/kg (TPA-induced ear edema; no vehicle on line) [%] | also measured
1 | CCCC/C=C\CCCCCCCC(=O)C1=C(O)COC1=O [Example 25, 4-Hydroxy-3-((Z)-1-oxo-9-tetradecenyl)-2(5H)-furanone] | 0.25 | 0.2 | 28.8 | 26.7 | 58.3 | 64 | 30 | 33.4 |  |  |  |  |  |  |  | LTC4 AA % Inhibition (5-lipoxygenase (LTC4); dose 0.6 (unit not given)): -4%; Topical % Inhibition at 200 μg (TPA-induced ear edema; vehicle not given): 86%
2 | CCCCCCCC/C=C\CCCCCCCC(=O)C1=C(O)COC1=O [Example 9, (Z)-4-Hydroxy-3-(1-oxo-9-octadecenyl)-2(5H)-furanone] | 0.2 | 0.2 | 97.3 |  | 18.5 | 7 | 42 | 1.1 | 8 | 4 | 56 |  |  |  |  | Subcutaneous % Inhibition at 50 m/kg (TPA-induced ear edema; on line of vehicle EPW): 28%
3 | CCCCCCCCCC(=O)C1=C(O)COC1=O [Example 1, 4-Hydroxy-3-(1-oxodecyl)-2(5H)-furanone] | 2 | 3 | 35.1 |  | 14.9 | 23 | 31 | 10.8 |  |  |  |  |  |  |  | 
4 | CCCCCC1CC1CC1CC1CCCCCCCC(=O)C1=C(O)COC1=O (centres unmarked) [Example 22, 4-Hydroxy-3-[1-oxo-8-[2-[(2-pentylcyclopropyl)methyl]cyclopropyl]octyl]-2(5H)-furanone] | 0.2 | 0.2 | 89.8 | 13.1 | 71 | 36 | 40 | 2.5 |  |  |  |  |  |  |  | 
5 | CCCCCCCCCCC/C=C\CCCCC(=O)C1=C(O)COC1=O [Example 18, (Z)-4-Hydroxy-3-(1-oxo-6-octadecenyl)-2(5H)-furanone] | 0.16 | 0.14 | 9 |  | 46 | 37 | 1 |  | -6 | -17 | 53 |  |  |  |  | Subcutaneous % Inhibition at 50 m/kg (TPA-induced ear edema; on line of vehicle EPW): 28%
6 | O=C(CCCCCCC/C=C\c1ccc(Cl)cc1)C1=C(O)COC1=O [Example 35, 3-[(Z)-10-(4-chlorophenyl)-1-oxo-9-decenyl]-4-hydroxy-2(5H)-furanone] | 0.3 | 0.15 | 28.4 | 7.5 | 68.6 |  | 39 | 16 |  |  |  |  |  |  |  | 

Now from value to compound, other results behind:

Row | IC50 (5-lipoxygenase (LTC4); [2]) [µM] | IC50 (cyclooxygenase (PGE2); zymosan stimulation) [µM] | inhibition at 10 µM [1] [%] | IC50 (human platelet PLA2) [µM] | inhibition at 10 µM (human platelet PLA2) [%] | Structure (SMILES) | Subcutaneous % Inhibition at 50 m/kg (TPA-induced ear edema; on line of vehicle acetone) [%] | Topical % Inhibition at 200 μg (TPA-induced ear edema; vehicle acetone) [%] | IC50 [1] [µM] | LTC4 AA % Inhibition (5-lipoxygenase (LTC4); dose 0.3 (unit not given)) [%] | inhibition at 0.3 µM (cyclooxygenase (PGE2); [3]) [%] | Topical % Inhibition at 200 μg (TPA-induced ear edema; vehicle EPW) [%] | LTC4 AA % Inhibition (5-lipoxygenase (LTC4); dose 0.5 (unit not given)) [%] | inhibition at 0.1 µM (cyclooxygenase (PGE2); zymosan stimulation) [%] | inhibition at 0.1 µM (5-lipoxygenase (LTC4); [2]) [%] | Subcutaneous % Inhibition at 50 m/kg (TPA-induced ear edema; no vehicle on line) [%] | also measured
7 | 0.3 | 0.1 | 72 |  | 16.4 | CCCCC/C=C\C/C=C\CCCCCCCC(=O)C1=C(O)CSC1=O [Example 46, 4-Hydroxy-3[(Z,Z)-1-oxo-9,12-octadecadienyl]-2(5H)-thiophenone] | 73 | 41 |  |  |  | 82 | -9 | 51.9 |  |  | inhibition at 0.5 µM (cyclooxygenase (PGE2); [3]): 5%; ED50 (TPA-induced ear edema): 46 mg/kg
8 |  |  | 50.9 |  | 1.1 | CCCC/C=C\CCCCCCCC(=O)C1=C(O)CSC1=O [Example 48, 4-Hydroxy-3-[(Z)-1-oxo-9-tetra-decenyl]-2(5H)-thiophenone] |  |  |  | -5 | -16 |  |  | 71.8 | 25.3 | 58 | inhibition at 1 µM (5-lipoxygenase (LTC4); Mus musculus, Peritoneal macrophage, zymosan stimulation, 1.0 μM): 77.1%; inhibition at 0.03 µM (cyclooxygenase (PGE2); zymosan stimulation, 0.03 μM): 25.4%
9 |  |  | 55.9 |  | 14.1 | CCCCC/C=C\C/C=C\C/C=C\CCCCC(=O)C1=C(O)CSC1=O [Example 50, 4-Hydroxy-3-[(Z,Z,Z)-1-oxo-6,9,12-octadecatrienyl]-2(5H)-thiophenone] |  |  |  |  |  |  | -33 | 21.6 | 38.8 | 78 | inhibition at 0.5 µM (5-lipoxygenase (LTC4); [2]): 48.1%; inhibition at 0.5 µM (cyclooxygenase (PGE2); [3]): -35%; inhibition at 0.5 µM (cyclooxygenase (PGE2); [4]): 70.1%; ED50 (TPA-induced ear edema): 19 mg/kg
10 |  |  | 29.4 |  | 15.2 | CCCCCCCCCCC/C=C\CCCCC(=O)C1=C(O)CSC1=O [Example 51, 4-Hydroxy-3-[(Z)-1-oxo-6-octadecenyl]-2(5H)-thiophenone] |  |  |  |  |  |  | -4 | 0.5 | 21.1 | 76 | inhibition at 0.5 µM (5-lipoxygenase (LTC4); [2]): 59.4%; inhibition at 0.5 µM (cyclooxygenase (PGE2); [4]): 91.3%; Topical % Inhibition at 200 μg (TPA-induced ear edema; vehicle not given): 55%
